Laboratory results as given in patent US20170107179A1 (Tetraphase Pharmaceuticals, Inc., priority 2010, published 2017).

Columns and labels:
[1] = tested on: S. pneumoniae strain SP514; assay: Immunocompetent CD-1 murine lung infection model; type: in vivo; details: immunocompetent CD-1 mice, SP514, orally dosed 30 mg/kg at 5, 24 and 36 hours post-infection (FIG. 2)
Experimental: Compound 102 was tested in an immunocompetent CD-1 murine model of lung infection challenged with S. pneumoniae strain SP514.

[2] = tested on: subset of Gram-negative and Gram-positive isolates; assay: Minimum bactericidal concentration (MBC), CLSI M26-A, selected strains (Table 11)
S. aureus Smith = assay: Mouse systemic infection (septicemia) model, CD-1 mice; details: Staphylococcus aureus, in Mus musculus, 48 h
[3] = tested on: E. coli DH10B EC1153 Tet(X); assay: MIC, E. coli DH10B recombinantly expressing tetracycline-resistance gene; details: arabinose-induced, ampicillin in medium
E. coli DH10B EC971 LacZ = assay: MIC, E. coli DH10B recombinantly expressing control gene; details: E. coli DH10B, arabinose-induced, ampicillin in medium
[4] = Preliminary pharmacokinetics in Sprague Dawley rats; details: rat, in vivo, po; Sprague Dawley rats (n = 3), initial preliminary testing; read-out: oral bioavailability (% F)

CN(C)[C@@H]1C(O)=C(C(N)=O)C(=O)[C@@]2(O)C(O)=C3C(=O)c4c(O)c5c(c(F)c4C[C@H]3C[C@@H]12)CN(C(C)(C)C)C5 [Compound 102]
log10 reduction in CFU versus the 48 hour untreated control [1]: 6.14+/−0.66 log10 | evaluated isolates with MBC:MIC ratio >2 [2]: 89.3% | mode of action from MBC:MIC ratios [2]: bacteriostatic mode of action | MBC:MIC ([2]; Acinetobacter lwoffii isolate 2919857): 4 | MBC:MIC ([2]; Acinetobacter lwoffii isolate 2919860): 128 | MBC:MIC ([2]; Acinetobacter lwoffii isolate 2919873): 1 | MBC:MIC ([2]; Acinetobacter lwoffii isolate 2919875): 4 | MBC:MIC ([2]; Enierobacter cloacae isolate 2920082): 4 | MBC:MIC ([2]; Enterobacter aerogenes isolate 2919897): 2 | MBC:MIC ([2]; Enterobacter aerogenes isolate 2919900): 8 | MBC:MIC ([2]; Enterobacter aerogenes isolate 2919909): 4 | MBC:MIC ([2]; Enterobacter aerogenes isolate 2919913): 16 | MBC:MIC ([2]; Enterobacter cloacae isolate 2920072): 2 | MBC:MIC ([2]; Enterobacter cloacae isolate 2920119): 1 | MBC:MIC ([2]; Escherichia coli isolate 2921525): >16 | MBC:MIC ([2]; Escherichia coli isolate 2921576): 8 | MBC:MIC ([2]; Klebsiella oxytoca isolate 2919956): 8 | MBC:MIC ([2]; Klebsiella oxytoca isolate 2919964): 4 | MBC:MIC ([2]; Klebsiella oxytoca isolate 2919972): 2 | MBC:MIC ([2]; Klebsiella oxytoca isolate 2919983): 8 | MBC:MIC ([2]; Klebsiella pneumonia isolate 2921528): >8 | MBC:MIC ([2]; Klebsiella pneumoniae isolate 2921529): >8 | MBC:MIC ([2]; Morganella morganii isolate 2919931): >4 | MBC:MIC ([2]; Morganella morganii isolate 2919935): >4 | MBC:MIC ([2]; Morganella morganii isolate 2919945): >2 | MBC:MIC ([2]; Proteus vulgaris isolate 2919822): >1 | MBC:MIC ([2]; Proteus vulgaris isolate 2919827): >2 | MBC:MIC ([2]; Proteus vulgaris isolate 2919835): >4 | MBC:MIC ([2]; Proteus vulgaris isolate 2919836): 4 | MBC:MIC ([2]; Salmonella species isolate 2919986): 4 | MBC:MIC ([2]; Salmonella species isolate 2919990): 4 | MBC:MIC ([2]; Salmonella species isolate 2920006): 4 | MBC:MIC ([2]; Salmonella species isolate 2920008): 4 | MBC:MIC ([2]; Serratia marcescens isolate 2920092): 4 | MBC:MIC ([2]; Serratia marcescens isolate 2920094): >4 | MBC:MIC ([2]; Serratia marcescens isolate 2920100): 2 | MBC:MIC ([2]; Serratia marcescens isolate 2920109): 4 | MBC:MIC ([2]; Shigella species isolate 2919892): 4 | MBC:MIC ([2]; Shigella species isolate 2919894): 16 | MBC:MIC ([2]; Shigella species isolate 2920018): 2 | MBC:MIC ([2]; Shigella species isolate 2920026): 32 | MBC:MIC ([2]; Shigella species isolate 2920028): 8 | MBC:MIC ([2]; Staphylococcus aureus isolate 2919648): >16 | MBC:MIC ([2]; Staphylococcus aureus isolate 2919649): >16 | MBC:MIC ([2]; Staphylococcus aureus isolate 2919650): >16 | MBC:MIC ([2]; Stenotrophomonas maltophilia isolate 2920035): >8 | MBC:MIC ([2]; Stenotrophomonas maltophilia isolate 2920051): 8 | MBC:MIC ([2]; Streptococcus anginosus isolate 2919722): 8 | MBC:MIC ([2]; Streptococcus anginosus isolate 2919742): 16 | MBC:MIC ([2]; Streptococcus anginosus isolate 2919797): 8 | MBC:MIC ([2]; Streptococcus intermedius isolate 2919756): 16 | MBC:MIC ([2]; Streptococcus intermedius isolate 2919759): 64 | MBC:MIC ([2]; Streptococcus intermedius isolate 2919784): 16 | MBC:MIC ([2]; Streptococcus intermedius isolate 2919819): 4 | MBC:MIC ([2]; Streptococcus mitis isolate 2919763): 4 | MBC:MIC ([2]; Streptococcus mitis isolate 2919781): 1 | MBC:MIC ([2]; Streptococcus mitis isolate 2919798): 1 | MBC:MIC ([2]; Streptococcus mitis isolate 2919803): 8 | MBC:MIC ([2]; Streptococcus sanguis isolate 2919749): 4 | MBC:MIC ([2]; Streptococcus sanguis isolate 2919752): 2 | MBC:MIC ([2]; Streptococcus sanguis isolate 2919758): 16 | responders at 3 mg/kg (S. aureus Smith; iv, read-out: Percent survival at 48 hours, IV (3 mg/kg)): 100% | responders at 30 mg/kg (S. aureus Smith; po, read-out: Percent survival at 48 hours, PO (30 mg/kg)): 83% | MIC EC1153 Tet(X) [3]: 4 | MIC EC971 LacZ (E. coli DH10B EC971 LacZ): 2 | bioavailability [4]: 48.3%
